From patent EP2127643A1, “Oral pellet composition with time-delayed release” (Bayer Schering Pharma Aktiengesellschaft, priority 2008, dated 2009)
Like-named read-outs stand apart in the source and are kept apart here.

What was measured:
[1] = human, cited from earlier work
[2] = rats; paclitaxel oral 30 min after oral morin; cited from earlier work
[3] = human; oral paclitaxel with simultaneous cyclosporin (Pgp inhibitor); cited from earlier work
[4] = biological target: CYP-2C9 (Homo sapiens, UniProt P11712); test: CYP test: inhibition of cytochrome P450 isoenzymes by excipients; assay type: biochemical
[5] = biological target: CYP-2C19 (Homo sapiens, UniProt P33261); test: as above; assay type: biochemical
[6] = biological target: CYP-3A4 (Homo sapiens, UniProt P08684); test: as above; assay type: biochemical
[7] = concentration of excipient at which 50 % of the isoenzyme is inhibited

Chain of CYP-2C9 (P11712 whole entry): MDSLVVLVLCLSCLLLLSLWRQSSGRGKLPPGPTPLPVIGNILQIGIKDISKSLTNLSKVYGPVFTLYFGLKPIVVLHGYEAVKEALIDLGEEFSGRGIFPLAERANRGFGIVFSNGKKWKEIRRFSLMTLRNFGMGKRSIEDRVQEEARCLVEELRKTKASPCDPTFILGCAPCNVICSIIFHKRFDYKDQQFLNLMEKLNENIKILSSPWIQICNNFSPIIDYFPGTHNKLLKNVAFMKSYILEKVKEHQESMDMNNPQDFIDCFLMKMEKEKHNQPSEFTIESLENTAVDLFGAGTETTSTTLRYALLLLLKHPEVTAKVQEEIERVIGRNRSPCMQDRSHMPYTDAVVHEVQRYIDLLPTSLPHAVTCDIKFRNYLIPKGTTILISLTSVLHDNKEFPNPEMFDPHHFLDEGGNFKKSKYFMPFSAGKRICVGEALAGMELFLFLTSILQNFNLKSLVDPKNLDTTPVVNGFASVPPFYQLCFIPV
Chain of CYP-3A4 (P08684 whole entry): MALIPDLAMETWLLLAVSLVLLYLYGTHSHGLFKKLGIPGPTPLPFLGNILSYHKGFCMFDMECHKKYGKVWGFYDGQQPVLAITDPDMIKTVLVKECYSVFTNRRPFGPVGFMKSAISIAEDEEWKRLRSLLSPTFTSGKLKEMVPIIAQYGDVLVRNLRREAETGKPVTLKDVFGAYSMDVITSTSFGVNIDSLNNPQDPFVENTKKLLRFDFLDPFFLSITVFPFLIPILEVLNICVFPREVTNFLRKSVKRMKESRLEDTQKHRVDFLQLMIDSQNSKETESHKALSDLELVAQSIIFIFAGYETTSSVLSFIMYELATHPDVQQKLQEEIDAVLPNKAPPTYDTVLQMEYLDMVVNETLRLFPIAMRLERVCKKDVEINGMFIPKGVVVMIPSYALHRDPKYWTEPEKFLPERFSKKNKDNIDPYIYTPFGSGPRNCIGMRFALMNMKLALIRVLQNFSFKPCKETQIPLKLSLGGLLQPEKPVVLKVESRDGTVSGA
Chain of CYP-2C19 (P33261 whole entry): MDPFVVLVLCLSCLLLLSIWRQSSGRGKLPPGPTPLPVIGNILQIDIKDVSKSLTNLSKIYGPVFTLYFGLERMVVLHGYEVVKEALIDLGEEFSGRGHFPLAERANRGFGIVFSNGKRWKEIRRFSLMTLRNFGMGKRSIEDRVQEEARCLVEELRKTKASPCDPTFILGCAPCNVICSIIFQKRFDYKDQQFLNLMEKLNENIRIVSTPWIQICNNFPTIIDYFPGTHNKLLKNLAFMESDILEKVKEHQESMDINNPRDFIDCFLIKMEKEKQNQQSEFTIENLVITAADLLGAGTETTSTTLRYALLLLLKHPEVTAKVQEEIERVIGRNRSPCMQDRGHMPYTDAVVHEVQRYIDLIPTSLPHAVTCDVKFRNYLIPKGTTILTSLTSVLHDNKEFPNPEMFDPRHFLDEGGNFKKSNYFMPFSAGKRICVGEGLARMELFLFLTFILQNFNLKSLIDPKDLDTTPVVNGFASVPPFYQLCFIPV

In the case of `C#C[C@]1(O)CC[C@H]2[C@@H]3CCc4cc(O)ccc4[C@H]3CC[C@@]21C` [Ethinylestradiol], the “Anteil des beobachteten First-Pass-Effekts durch direkte Konjugation (vor allem Sulfatierung in der Darmwand)” value ([1]; gut wall) is listed as 65% and the “humane absolute Bioverfügbarkeit” value ([1]; oral) is listed as about 45%.

In the case of `CC(=O)O[C@H]1C(=O)[C@@]2(C)[C@H]([C@H](OC(=O)c3ccccc3)[C@]3(O)C[C@H](OC(=O)[C@H](O)[C@@H](NC(=O)c4ccccc4)c4ccccc4)C(C)=C1C3(C)C)[C@]1(OC(C)=O)CO[C@@H]1C[C@@H]2O` [Paclitaxel], the “Erhöhung der AUC” value [2] is given as at most 70% and the “Bioverfügbarkeit erhöht um Faktor” value [3] is given as 9.

Compound `CCCCCCCC/C=C\CCCCCCCC(=O)OCC` [Ethyloleat] has an IC50 [4] of 0.628 mM, an IC50 [5] of 1.05 mM and an IC50 [6] of 0.377 mM.

For `CCOCCOCCO` [Transcutol®P, Ethoxydiglycol], the IC50 ([4]; concentration of excipient at which 50 % of the isoenzyme is inhibited, read-out: IC50, µg/ml CYP-2C9 (converted)) was 11.2 mM, the IC50 ([5]; concentration of excipient at which 50 % of the isoenzyme is inhibited, read-out: IC50, µg/ml CYP-2C19 (converted)) was 10.4 mM and the IC50 ([6]; concentration of excipient at which 50 % of the isoenzyme is inhibited, read-out: IC50, µg/ml CYP-3A4 (converted)) was 5.63 mM.

With Glycerolmonocaprylat [Imwitor®308] the “IC50, µg/ml CYP-2C9” value [4, 7] was 5,0 µg/ml, the “IC50, µg/ml CYP-2C19” value [5, 7] was 6,9 µg/ml and the “IC50, µg/ml CYP-3A4” value [6, 7] was 29 µg/mL.
